Tests used:
[1] = Phase I dose escalation: safety, tolerability, DLT and MTD (CTC-AE 4.03); type: in vivo
Method: This was the first-in-human phase I dose-escalation study of AST1306 for patients with advanced solid tumors. AST1306 was orally administered without food for one day followed by two days off to evaluate single dose PK profiles. After that, it was continuously administered for 21 days and two days off to assess multiple dose PK profiles and safety. […] Three times daily in three dose levels (800 mg TID, 1000 mg TID and 1200 mg TID) were explored subsequently. Treatment was then repeated at the same dose level in 28-day cycles until unacceptable toxicities, disease progression or the patient’s withdrew from the study. PK extension study was performed to enroll additional patients up to at least eight patients per dose cohort in three dose levels (MTD, one or two doses level lower than the MTD) for further evaluation of PK profiles.
Safety and tolerability were evaluated and assessed by investigators throughout the study and up to 14 days after the final dose of AST1306 according to Common Terminology Criteria for Adverse Events (CTC-AE) version 4.03. Laboratory evaluations and electrocardiogram were conducted at screening; every week of first and second cycles; every two weeks of third cycle and every four weeks of subsequent cycles. AEs assessment, vital signs, physical examinations and echocardiography were performed.
A modified Fibonacci 3 plus 3 dose-escalation design was employed. Tolerability was evaluated according to the type and frequency of DLTs observed from single-day-dose administration until day 21 of the first cycle of continuous dosing. DLTs were defined as follows: grade ≥ 3 non-hematologic toxicity (except nausea, vomiting and diarrhea); grade ≥ 3 nausea, vomiting or diarrhea uncontrollable with standard supportive care; grade 4 neutropenia or febrile neutropenia; and grade 4 thrombocytopenia or bleeding requiring a platelet transfusion. If two or more patients experienced DLTs in three to six patients for each cohort, dose escalation was terminated and the dose level below was defined as the MTD.
Dose interruptions were permitted for no more than 14 days for patients experiencing DLTs in the first cycle or intolerable toxicities in the subsequent cycles, with treatment resumed at the next lower dose level upon adequate recovery (grade ≤ 1). More than two dose level reductions were not allowed.
Patients in the PK extension study and food-effect study were also included to evaluate safety further.

advanced solid tumors = assay: Antitumor activity by RECIST 1.0; type: in vivo, human
Method: Antitumor activity was assessed by tumor measurements according to RECIST 1.0 and performed at 8-week intervals. The primary efficacy endpoint was progression free survival (PFS), which was defined as the time from the first administration until disease progression or death. Overall survival (OS) and response rate were also assessed. Clinical benefit rate was measured and defined as the proportion of patients with complete response, partial response and stable disease (SD) ≥ 6 months.

EGFR = tested on: EGFR; parameters: method as in PMID 21789172, PMID 18408761, PMID 15728811, PMID 15737014, PMID 17085664; conditions: cited from earlier work
EGFR T790M mutant = tested on: EGFR T790M mutant; parameters: method as in PMID 21789172, PMID 18408761, PMID 15728811, PMID 15737014, PMID 17085664; conditions: cited from earlier work

Q: Which MTD ([1]; TID, continuous-dosing schedule, oral) does the source give for `C=CC(=O)Nc1ccc2ncnc(Nc3ccc(OCc4cccc(F)c4)c(Cl)c3)c2c1` [AST1306] here?
A: 1000 mg

Q: What about the “Anorexia grade 3, treatment-related AE, patients” value ([1]; human, in vivo) of the same compound?
A: 0

Q: What about the “Fatigue grade 3, treatment-related AE, % of patients” value ([1]; human, in vivo) of the same compound?
A: 0%

Q: And the “Fatigue grade 3, treatment-related AE, patients” value ([1]; human, in vivo)?
A: 0

Q: And the “Hand-foot syndrome grade 3, treatment-related AE, % of patients” value ([1]; human, in vivo)?
A: 0%

Q: What about the “Hand-foot syndrome grade 3, treatment-related AE, patients” value ([1]; human, in vivo) of the same compound?
A: 0

Q: And the “Proteinuria grade 3, treatment-related AE, % of patients” value ([1]; human, in vivo)?
A: 0%

Q: And the “Proteinuria grade 3, treatment-related AE, patients” value ([1]; human, in vivo)?
A: 0

Q: And the “Vomiting grade 3, treatment-related AE, % of patients” value ([1]; human, in vivo)?
A: 0%

Q: And the “Vomiting grade 3, treatment-related AE, patients” value ([1]; human, in vivo)?
A: 0

Q: What about the “discontinuation from treatment due to diarrhea, % of patients” value ([1]; human, in vivo) of the same compound?
A: 7%

Q: And the “discontinuation from treatment due to diarrhea, patients” value ([1]; human, in vivo)?
A: 5

Q: What about the “discontinuation from treatment due to hypokalemia, patients” value ([1]; human, in vivo) of the same compound?
A: 1

Q: What about the “grade 3 drug-related abdominal pain, % of patients” value ([1]; human, in vivo) of the same compound?
A: 1.4%

Q: What about the “grade 3 drug-related abdominal pain, patients” value ([1]; human, in vivo) of the same compound?
A: 1

Q: What about the “grade 3 drug-related anemia, % of patients” value ([1]; human, in vivo) of the same compound?
A: 1.4%

Q: What about the “grade 3 drug-related anemia, patients” value ([1]; human, in vivo) of the same compound?
A: 1

Q: And the “grade 3 drug-related diarrhea, % of patients” value ([1]; human, in vivo)?
A: 32.4%

Q: What about the “grade 3 drug-related diarrhea, patients” value ([1]; human, in vivo) of the same compound?
A: 23

Q: And the “grade 3 drug-related elevated ALT or AST, % of patients” value ([1]; human, in vivo)?
A: 4.2%

Q: And the “grade 3 drug-related elevated ALT or AST, patients” value ([1]; human, in vivo)?
A: 3

Q: And the “grade 3 drug-related hypokalemia, % of patients” value ([1]; human, in vivo)?
A: 1.4%

Q: What about the “grade 3 drug-related hypokalemia, patients” value ([1]; human, in vivo) of the same compound?
A: 1

Q: And the “grade 3 drug-related rash, % of patients” value ([1]; human, in vivo)?
A: 1.4%

Q: And the “grade 3 drug-related rash, patients” value ([1]; human, in vivo)?
A: 1

Q: What about the “grade 3 study drug-related AEs, % of patients” value ([1]; human, in vivo) of the same compound?
A: 39.4%

Q: And the “grade 3 study drug-related AEs, patients” value ([1]; human, in vivo)?
A: 28

Q: And the “grade 4 to 5 AEs” value ([1]; human, in vivo)?
A: no observed grade 4 to 5 AEs

Q: What about the “patients with serious AEs (SAE)” value ([1]; human, in vivo) of the same compound?
A: 8

Q: And the “treatment-related diarrhea, % of patients” value ([1]; human, in vivo)?
A: 85.9%

Q: What about the “treatment-related diarrhea, patients” value ([1]; human, in vivo) of the same compound?
A: 61

Q: What about the “treatment-related fatigue, % of patients” value ([1]; human, in vivo) of the same compound?
A: 19.7%

Q: And the “treatment-related fatigue, patients” value ([1]; human, in vivo)?
A: 14

Q: And the “treatment-related rash, % of patients” value ([1]; human, in vivo)?
A: 16.9%

Q: And the “treatment-related rash, patients” value ([1]; human, in vivo)?
A: 12

Q: What about the “patients with DLT (grade 3 diarrhea)” value ([1]; human, in vivo, 21 days) of the same compound?
A: 5

Q: What about the “recommended phase II dose (RP2D)” value ([1]; human, in vivo, po, 21 days) of the same compound?
A: 1000 mg

Q: What about the “decline in LVEF” value ([1]; in vivo) of the same compound?
A: no significant decline in LVEF

Q: What about the “patients with dose reductions (all due to diarrhea)” value ([1]; in vivo) of the same compound?
A: Seven

Q: And the “patients with study drug-related AEs” value ([1]; in vivo)?
A: Sixty-eight

Q: What about the “median OS” value (advanced solid tumors; 12 NSCLC patients) of the same compound?
A: not yet been reached

Q: And the “median PFS” value (advanced solid tumors; 12 NSCLC patients)?
A: 3.6 months

Q: And the “median OS” value (advanced solid tumors; 17 breast cancer patients)?
A: 17.7 (95% CI, 16.1–19.3) months

Q: What about the “median PFS” value (advanced solid tumors; 17 breast cancer patients) of the same compound?
A: 5.5 (95% CI, 3.2–7.9) months

Q: What about the “confirmed PR, % of patients” value (advanced solid tumors; 55 evaluable patients) of the same compound?
A: 12.7%

Q: And the “confirmed partial responses, patients” value (advanced solid tumors; 55 evaluable patients)?
A: 7

Q: What about the “stable disease ≥ 6 months, patients” value (advanced solid tumors; 55 evaluable patients) of the same compound?
A: 7

Q: And the “confirmed PR, patients” value (advanced solid tumors; NSCLC, 12 evaluable)?
A: 1

Q: What about the “confirmed PR, patients” value (advanced solid tumors; breast cancer, 17 evaluable, all responders HER2 positive) of the same compound?
A: 5

Q: What about the “confirmed PR, patients” value (advanced solid tumors; gastric cancer) of the same compound?
A: 1

Q: What about the “fold more potent than afatinib and dacomitinib” value (EGFR; EGFR and HER2 IC50) of the same compound?
A: 5-15 fold

Q: And the IC50 (EGFR; preclinical, read-out: IC50 inhibiting EGFR)?
A: 0.5 nM

Q: What about the “fold more potent than lapatinib” value (EGFR T790M mutant; EGFR T790M mutant) of the same compound?
A: approximately 500 fold

Q: And the IC50 (EGFR T790M mutant; preclinical)?
A: 12 ± 2 nM

From article PMC4007625, “A phase I study of AST1306, a novel irreversible EGFR and HER2 kinase inhibitor, in patients with advanced solid tumors” (Journal of Hematology & Oncology, 2014)
